Reference: the NIST ThermoML archive (doi:10.1016/j.jct.2014.06.011)
Numbers after ± are expanded uncertainties.

Assays:
[1] = Crystal; DTA
[2] = Molar enthalpy of transition or fusion; settings: Crystal; DSC

Question: What does the source list for `CCCCCCCCCCO` [decan-1-ol]?
Answer: Normal melting temperature [1]: 7.2 ± 0.7 °C; Molar enthalpy of transition or fusion [2]: 6.88 ± 0.741 kcal/mol

Question: Which Normal melting temperature [1] does the source give for `CCCCCCCCCC(=O)O` [decanoic acid] here?
Answer: 32.2 ± 0.7 °C

Question: And the “Molar enthalpy of transition or fusion” value [2]?
Answer: 6.69 ± 0.741 kcal/mol

Question: With `CCCCCCCCO` [octan-1-ol] as the compound, how does the Normal melting temperature [1] read?
Answer: -14.4 ± 0.7 °C

Question: What about the “Molar enthalpy of transition or fusion” value [2] of the same compound?
Answer: 5.66 ± 0.717 kcal/mol

Question: What does the source list for `CCCCCCCC(=O)O` [octanoic acid]?
Answer: Normal melting temperature [1]: 16.6 ± 0.7 °C; Molar enthalpy of transition or fusion [2]: 5.11 ± 0.717 kcal/mol
